US8962001B2, “Nuclease inhibitors and methods for their use” (Wisconsin Alumni Research Foundation, priority 2004, dated 2015)
pKi: −log10 of the molar value.

Key:
ribonuclease A = biological target: T1, ribonuclease A (Bos taurus, UniProt P61823); assay: Inhibition of RNase A catalysis, fluorescence assay with 6-FAM~dArUdAdA~6-TAMRA; format: biochemical; conditions: solutions of low salt concentration
T1 construct: made in house
T1 sequence (P61823 27-150): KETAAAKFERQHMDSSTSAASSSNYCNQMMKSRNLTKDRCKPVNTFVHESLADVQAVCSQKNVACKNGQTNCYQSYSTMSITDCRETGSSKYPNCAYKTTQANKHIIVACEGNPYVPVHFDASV
Method: Inhibition of RNase A Catalysis—Inhibition of ribonucleolytic activity was measured by using either poly(C) or a fluorogenic substrate. The total cytidyl concentration of poly(C) was quantitated using ε=6,200 M^−1 cm^−1 at 268 nm (Yakovlev et al., 1992). The cleavage of poly(C) was monitored by the decrease in ultraviolet hypochromicity. The Δε value for this reaction calculated from the difference in molar absorptivity of the polymeric substrate and the mononucleotide cyclic phosphate product was 2,380 M^−1 cm^−1 at 250 nm (delCardayre and Raines, 1994). Assays were performed at 25° C. in 50 mM imidazole-HCl buffer, pH 6.0, containing NaCl (0.10 M), poly(C) (10 μM-1.5 mM), OVS (0-1.43 μM), and enzyme (1.0 nM).
Molar values of OVS were calculated by using the number average molecular mass (Mn) of 2,000 g/mol (value provided by the manufacturer and said to be measured by GPC, Polysciences.) It is possible that an oligomer of this size could bind two enzymes. Thus, the actual Ki values could be 2-fold higher. Kinetic parameters were determined from initial velocity data with the program DELTA-GRAPH 4.0 (DeltaPoint, Monterey, Calif.). For the fluorescence assay, the inhibition of ribonucleolytic activity was assessed at 25° C. in 2.0 ml of 50 mM imidazole-HCl buffer, pH 6.0, containing NaCl (0-0.25 M), 6-FAM˜dArUdAdA˜6-TAMRA (60 nM), and RNase A ([…]) as described previously (Kelemen et al., 1999; Park et al., 2001). Fluorescence (F) was measured using 493 and 515 nm as the excitation and emission wavelengths, respectively. The value of ΔF/Δt was measured for 3 min after the addition of RNase A. An aliquot of inhibitor (I) dissolved in the dissolved in the assay buffer was added next, and ΔF/Δt was measured in the presence of the inhibitor for 3 min. The concentration of inhibitor in the assay was doubled repeatedly in 3-min intervals. Excess RNase A was then added to the mixture to ensure that […] substrate had been cleaved prior to completion of the inhibition assay. Apparent changes in ribonucleolytic activity due to dilution were corrected by comparing values to an assay in which aliquots of buffer were added to the assay. Values of Ki were determined by non-linear least squares regression analysis of data fitted to Equation 1 (Kelemen et al., 1999; Park et al., 2001). ΔF/Δt=(ΔF/Δt)0(Ki/(Ki+[I])) (Eq. 1)
At 0 M NaCl, the enzyme concentration ([E] total) caused a significant depletion in inhibitor concentration, thus the data were fitted to Equation 2, which describes tight-binding inhibition (Henderson, 1972). ΔF/Δt=((ΔF/Δt)0/2[E]total){[(Ki+[I]−[E]total]^2+4Ki[E]total)^1/2−(Ki+[I]−[E]total)} (Eq. 2) In Equations 1 and 2, ( )F/ )t)0 was the ribonucleolytic activity prior to inhibitor addition.

RNase A = biological target: T2, RNase A (Bos taurus, UniProt P61823); conditions: similar buffer conditions with 0.10 M NaCl; cited from earlier work
T2 sequence (P61823 27-150): T1 sequence (P61823 27-150)

O=S(=O)(O)CCOCCS(=O)(=O)O [Diethanesulfonic acid ether, diethanesulfonic acid ether]
inhibition of RNase A by buffer synthesis byproducts (words) (ribonuclease A): failed to inhibit RNase A
inhibition of RNase A by buffer synthesis byproducts (words) (ribonuclease A; listed as diethanesulfonic acid): None of these three materials was found, when tested, to exhibit inhibitory activity

Nc1ncnc2c1ncn2[C@@H]1O[C@H](COP(=O)(O)OP(=O)(O)O[C@H]2C[C@H](n3ccc(=O)[nH]c3=O)O[C@@H]2COP(=O)(O)O)[C@@H](OP(=O)(O)O)[C@H]1O [pdUppA-3′-p]
pKi (RNase A): ~6.92

O=S(=O)(O)CCO [2-hydroxyethanesulfonic acid]
inhibition of RNase A by buffer synthesis byproducts (words) (ribonuclease A): Neither of these species was found to be a potent inhibitor
inhibition of RNase A by buffer synthesis byproducts (words) (ribonuclease A; listed as 2-OH ethanesulfonic acid): None of these three materials was found, when tested, to exhibit inhibitory activity

C=CS(=O)(=O)O [vinylsulfonic acid]
inhibition of RNase A by buffer synthesis byproducts (words) (ribonuclease A): Neither of these species was found to be a potent inhibitor
inhibition of RNase A by buffer synthesis byproducts (words) (ribonuclease A; listed as vinyl sulfonic acid): None of these three materials was found, when tested, to exhibit inhibitory activity
